Results on 27 compounds are retold here after patent publication US8124610B2, “Sodium channel inhibitors” (Icagen Inc., priority 2007, dated 2012).

Where only a bound is given, the exact number is not on record here.

In experiment [1] the target is T1, hSCN3A (Homo sapiens, UniProt Q9NY46).
T1 construct: expressed in transfected cells
As to the kind of experiment: Whole-cell patch-clamp electrophysiology (conventional or PatchXpress), HEK cells expressing hSCN3A, estimated IC-50. The experiment is classed as cell-based. The following applies: estimated IC-50, HEK cells expressing hSCN3A; class symbols or bounds; read-out: SCN3A EIC-50. In outline:
(§1)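 Stably transfected HEK cells recorded by whole-cell voltage clamp (manual or PatchXpress) at 22–24 °C in pH 7.4 HEPES-buffered extracellular solution. Cells held at the empirically determined inactivation V1/2 after an 8 s prepulse, then stepped to 0 mV for 20 ms; % inhibition from current amplitude before vs after compound.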

Experiment [2] has as its target T2, hSCN9A (Homo sapiens, UniProt Q15858).
T2 construct: expressed in transfected cells
As to the kind of experiment: Whole-cell patch-clamp electrophysiology (conventional or PatchXpress), HEK cells expressing hSCN9A, estimated IC-50. The experiment is classed as cell-based. The settings on record: estimated IC-50, HEK cells expressing hSCN9A; class symbols or bounds; read-out: SCN9A EIC-50. In a few lines:
as §1

For experiment [3], the target named is Nav1.3 (Homo sapiens, UniProt Q9NY46). The following applies: read-out: TTX IC-50; cited from earlier work.
Nav1.3, sequence (Q9NY46 whole entry, looked up): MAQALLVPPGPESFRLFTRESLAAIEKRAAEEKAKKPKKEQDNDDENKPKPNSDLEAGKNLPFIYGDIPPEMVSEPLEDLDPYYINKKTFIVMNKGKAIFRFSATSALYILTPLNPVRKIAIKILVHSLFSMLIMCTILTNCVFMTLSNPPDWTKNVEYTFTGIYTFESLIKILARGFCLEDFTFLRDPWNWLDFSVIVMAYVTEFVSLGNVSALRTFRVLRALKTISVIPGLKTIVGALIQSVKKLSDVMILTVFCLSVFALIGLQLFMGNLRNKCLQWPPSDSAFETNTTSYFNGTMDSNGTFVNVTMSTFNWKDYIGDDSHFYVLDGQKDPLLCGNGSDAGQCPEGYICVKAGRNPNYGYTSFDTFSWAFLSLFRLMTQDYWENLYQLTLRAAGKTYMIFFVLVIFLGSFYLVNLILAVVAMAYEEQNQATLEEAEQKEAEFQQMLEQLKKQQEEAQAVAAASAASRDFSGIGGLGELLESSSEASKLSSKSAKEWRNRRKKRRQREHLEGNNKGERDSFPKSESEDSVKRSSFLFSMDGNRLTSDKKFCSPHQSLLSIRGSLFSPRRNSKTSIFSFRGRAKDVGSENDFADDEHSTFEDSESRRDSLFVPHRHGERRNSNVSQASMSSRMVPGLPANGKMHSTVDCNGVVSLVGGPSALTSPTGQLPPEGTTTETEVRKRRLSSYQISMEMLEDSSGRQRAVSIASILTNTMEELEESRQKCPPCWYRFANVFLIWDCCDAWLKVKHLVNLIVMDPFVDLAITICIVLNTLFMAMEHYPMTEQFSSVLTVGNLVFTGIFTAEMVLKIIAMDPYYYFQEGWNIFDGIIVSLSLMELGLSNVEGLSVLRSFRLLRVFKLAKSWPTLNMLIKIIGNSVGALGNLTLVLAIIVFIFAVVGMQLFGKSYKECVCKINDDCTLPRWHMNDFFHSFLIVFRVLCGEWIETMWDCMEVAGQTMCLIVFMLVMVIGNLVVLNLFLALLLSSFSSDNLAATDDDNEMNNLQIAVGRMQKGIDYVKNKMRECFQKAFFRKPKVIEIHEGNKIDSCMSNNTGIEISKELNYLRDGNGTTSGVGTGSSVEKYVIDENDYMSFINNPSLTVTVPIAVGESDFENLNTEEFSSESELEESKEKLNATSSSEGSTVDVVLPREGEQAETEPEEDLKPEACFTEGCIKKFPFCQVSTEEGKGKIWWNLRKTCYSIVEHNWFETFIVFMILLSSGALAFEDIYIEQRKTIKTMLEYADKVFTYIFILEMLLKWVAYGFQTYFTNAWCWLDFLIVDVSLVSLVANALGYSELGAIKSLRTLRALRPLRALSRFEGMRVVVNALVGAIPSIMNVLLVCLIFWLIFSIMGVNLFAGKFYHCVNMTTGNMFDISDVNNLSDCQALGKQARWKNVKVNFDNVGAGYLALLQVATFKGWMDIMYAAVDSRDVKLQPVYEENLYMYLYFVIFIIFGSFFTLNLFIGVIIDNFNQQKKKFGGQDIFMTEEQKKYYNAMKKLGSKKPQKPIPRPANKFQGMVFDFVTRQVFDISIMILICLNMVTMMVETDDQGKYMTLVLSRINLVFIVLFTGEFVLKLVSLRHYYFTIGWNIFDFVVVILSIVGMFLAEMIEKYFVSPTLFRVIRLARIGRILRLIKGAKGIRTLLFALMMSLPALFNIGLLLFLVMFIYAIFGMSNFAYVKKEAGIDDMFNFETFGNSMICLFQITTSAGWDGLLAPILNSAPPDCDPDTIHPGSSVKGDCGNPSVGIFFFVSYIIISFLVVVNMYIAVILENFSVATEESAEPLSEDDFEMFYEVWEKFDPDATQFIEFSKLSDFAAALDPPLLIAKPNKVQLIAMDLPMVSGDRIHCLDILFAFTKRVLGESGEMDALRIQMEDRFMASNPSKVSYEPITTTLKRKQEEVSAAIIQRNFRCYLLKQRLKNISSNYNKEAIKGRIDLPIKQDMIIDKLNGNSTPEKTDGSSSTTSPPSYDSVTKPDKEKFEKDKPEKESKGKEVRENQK
The target of experiment [4] is Nav1.6 (Homo sapiens, UniProt Q9UQD0). The settings on record: read-out: TTX IC-50; cited from earlier work.
The target in experiment [5] is Nav1.8 (Homo sapiens, UniProt Q9Y5Y9). The following applies: read-out: TTX IC-50; cited from earlier work.
Experiment [6] has as its target Nav1.9 (Homo sapiens, UniProt Q9UI33). The following applies: read-out: TTX IC-50; cited from earlier work.
Experiment [7] addresses Nav1.1 (Homo sapiens, UniProt P35498). The settings on record: read-out: TTX IC-50; cited from earlier work.
For experiment [8], the target named is Nav1.2 (Homo sapiens, UniProt Q99250). The settings on record: read-out: TTX IC-50; cited from earlier work.
The conditions of experiment [9]: cited from earlier work.

T1 sequence (Q9NY46 whole entry): as the sequence (Q9NY46 whole entry, looked up) above
T2 sequence (Q15858 whole entry): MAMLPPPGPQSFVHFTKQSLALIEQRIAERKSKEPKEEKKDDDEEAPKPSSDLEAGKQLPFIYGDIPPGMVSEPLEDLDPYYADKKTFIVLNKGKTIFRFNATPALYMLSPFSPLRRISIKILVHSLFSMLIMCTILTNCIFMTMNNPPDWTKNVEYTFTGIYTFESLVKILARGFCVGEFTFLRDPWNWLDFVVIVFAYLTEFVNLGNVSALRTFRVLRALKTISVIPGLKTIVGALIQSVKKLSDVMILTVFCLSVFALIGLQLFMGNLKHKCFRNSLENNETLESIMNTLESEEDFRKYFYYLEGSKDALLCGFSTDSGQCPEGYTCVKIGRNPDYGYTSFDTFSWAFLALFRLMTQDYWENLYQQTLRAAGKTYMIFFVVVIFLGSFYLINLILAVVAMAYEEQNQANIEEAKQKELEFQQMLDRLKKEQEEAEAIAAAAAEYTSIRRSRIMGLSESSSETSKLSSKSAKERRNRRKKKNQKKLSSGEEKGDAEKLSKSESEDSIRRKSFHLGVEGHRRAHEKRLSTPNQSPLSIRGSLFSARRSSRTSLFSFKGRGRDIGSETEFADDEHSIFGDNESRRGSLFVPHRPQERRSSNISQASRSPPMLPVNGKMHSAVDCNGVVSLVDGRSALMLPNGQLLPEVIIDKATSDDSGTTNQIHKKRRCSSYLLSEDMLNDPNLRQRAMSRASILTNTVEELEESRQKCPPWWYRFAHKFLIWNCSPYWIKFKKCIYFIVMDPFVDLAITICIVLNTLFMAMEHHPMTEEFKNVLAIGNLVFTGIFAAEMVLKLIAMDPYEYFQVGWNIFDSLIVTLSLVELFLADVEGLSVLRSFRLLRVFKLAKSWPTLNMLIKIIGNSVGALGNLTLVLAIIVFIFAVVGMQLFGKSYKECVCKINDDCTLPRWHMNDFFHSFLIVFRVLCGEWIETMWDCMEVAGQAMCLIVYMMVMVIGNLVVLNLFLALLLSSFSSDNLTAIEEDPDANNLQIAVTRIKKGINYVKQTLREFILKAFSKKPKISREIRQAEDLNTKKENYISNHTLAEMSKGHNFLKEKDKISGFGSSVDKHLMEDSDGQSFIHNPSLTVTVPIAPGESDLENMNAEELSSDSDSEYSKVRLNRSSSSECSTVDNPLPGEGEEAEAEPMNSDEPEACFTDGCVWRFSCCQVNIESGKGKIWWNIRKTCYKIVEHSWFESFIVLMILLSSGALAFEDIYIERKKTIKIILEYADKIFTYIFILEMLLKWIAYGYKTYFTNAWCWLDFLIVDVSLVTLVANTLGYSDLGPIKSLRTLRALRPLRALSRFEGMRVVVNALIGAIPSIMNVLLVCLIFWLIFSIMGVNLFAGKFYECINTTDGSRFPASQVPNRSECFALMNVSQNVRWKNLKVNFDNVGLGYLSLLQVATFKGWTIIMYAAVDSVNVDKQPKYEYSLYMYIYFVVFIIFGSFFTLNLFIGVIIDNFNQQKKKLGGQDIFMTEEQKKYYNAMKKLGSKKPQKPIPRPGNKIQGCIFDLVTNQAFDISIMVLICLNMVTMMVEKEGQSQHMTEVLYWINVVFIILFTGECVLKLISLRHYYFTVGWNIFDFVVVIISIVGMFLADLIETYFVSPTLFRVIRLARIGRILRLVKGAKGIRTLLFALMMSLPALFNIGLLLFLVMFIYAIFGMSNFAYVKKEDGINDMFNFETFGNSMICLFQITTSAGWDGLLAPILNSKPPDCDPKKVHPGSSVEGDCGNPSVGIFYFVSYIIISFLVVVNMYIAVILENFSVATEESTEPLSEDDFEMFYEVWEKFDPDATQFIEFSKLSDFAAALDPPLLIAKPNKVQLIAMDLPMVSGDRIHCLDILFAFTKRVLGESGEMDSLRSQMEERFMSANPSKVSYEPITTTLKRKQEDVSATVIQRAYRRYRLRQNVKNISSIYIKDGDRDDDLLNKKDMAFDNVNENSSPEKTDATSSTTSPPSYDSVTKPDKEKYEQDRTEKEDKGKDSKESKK

Regarding `O=S(=O)(Nc1nccs1)c1ccc(Nc2ccn(Cc3ccc(C(F)(F)F)cc3)n2)cc1F` [Compound 183, 2-fluoro-N-(thiazol-2-yl)-4-(1-(4-(trifluoromethyl)benzyl)-1H-pyrazol-3-ylamino)benzenesulfonamide], the IC50 in experiment [1] and in [2] was less than 2000 nM in each case.

As to `O=S(=O)(Nc1nccs1)c1ccc(Nc2ccn(Cc3ccc(Cl)cc3)n2)c(F)c1` [Compound 184, 4-(1-(4-chlorobenzyl)-1H-pyrazol-3-ylamino)-3-fluoro-N-(thiazol-2-yl)benzenesulfonamide], the IC50 in experiment [1] and in experiment [2] was less than 2000 nM throughout.

With `O=S(=O)(Nc1nccs1)c1ccc(Nc2ccn(Cc3ccc(C(F)(F)F)cc3)n2)c(F)c1` [Compound 185, 3-fluoro-N-(thiazol-2-yl)-4-(1-(4-(trifluoromethyl)benzyl)-1H-pyrazol-3-ylamino)benzenesulfonamide], the IC50 in experiment [1] and in [2] was less than 2000 nM throughout.

In the case of `COc1ccccc1-n1nc(C)cc1Nc1ccc(S(=O)(=O)Nc2nccs2)c(F)c1` [Compound 188, 2-fluoro-4-(1-(2-methoxyphenyl)-3-methyl-1H-pyrazol-5-ylamino)-N-(thiazol-2-yl)benzenesulfonamide], the IC50 in experiment [1] and in experiment [2] was less than 2000 nM in each case.

As to `Cc1cc(Nc2ccc(S(=O)(=O)Nc3nccs3)c(F)c2)n(-c2c(C)cccc2C)n1` [Compound 191, 4-(1-(2,6-dimethylphenyl)-3-methyl-1H-pyrazol-5-ylamino)-2-fluoro-N-(thiazol-2-yl)benzenesulfonamide], the IC50 in [1] and in experiment [2] was less than 2000 nM throughout.

As to `Cn1nc(C(C)(C)C)cc1Nc1ccc(S(=O)(=O)Nc2nccs2)c(F)c1` [Compound 193, 4-(3-tert-butyl-1-methyl-1H-pyrazol-5-ylamino)-2-fluoro-N-(thiazol-2-yl)benzenesulfonamide], the IC50 in experiment [1] and in experiment [2] was less than 2000 nM each time.

In the case of `O=S(=O)(Nc1nccs1)c1ccc(Nc2ccn(Cc3ccc(Cl)cc3F)n2)c(F)c1` [Compound 198, 4-(1-(4-chloro-2-fluorobenzyl)-1H-pyrazol-3-ylamino)-3-fluoro-N-(thiazol-2-yl)benzenesulfonamide], the IC50 in experiment [1] and in [2] was less than 2000 nM throughout.

For the compound `O=S(=O)(Nc1nccs1)c1ccc(Nc2ncn(Cc3cccc(Cl)c3)n2)c(F)c1` [Compound 201, 4-(1-(3-chlorobenzyl)-1H-1,2,4-triazol-3-ylamino)-3-fluoro-N-(thiazol-2-yl)benzenesulfonamide], the IC50 in experiment [1] was 2000 to 10000 nM; in experiment [2], less than 2000 nM.

As for `O=S(=O)(Nc1nccs1)c1ccc(Nc2cc(CC(F)(F)F)nn2-c2ccccc2F)cc1F` [Compound 204, 2-fluoro-4-(1-(2-fluorophenyl)-3-(2,2,2-trifluoroethyl)-1H-pyrazol-5-ylamino)-N-(thiazol-2-yl)benzenesulfonamide], the IC50 in experiment [1] and in experiment [2] was less than 2000 nM in each case.

Consider `O=S(=O)(Nc1nccs1)c1ccc(Nc2ccn(Cc3ccc(Cl)cc3)n2)c(Cl)c1` [Compound 205, 3-chloro-4-(1-(4-chlorobenzyl)-1H-pyrazol-3-ylamino)-N-(thiazol-2-yl)benzenesulfonamide], for which the IC50 in [1] and in experiment [2] was less than 2000 nM in each case.

For the compound `O=S(=O)(Nc1nccs1)c1cc(F)c(Nc2ccn(Cc3ccc(Cl)cc3)n2)cc1F` [Compound 206, 4-(1-(4-chlorobenzyl)-1H-pyrazol-3-ylamino)-2,5-difluoro-N-(thiazol-2-yl)benzenesulfonamide], the IC50 in [1] and in [2] was less than 2000 nM in each case.

Turning to `CCN(CC)C(=O)Cc1cc(Nc2ccc(S(=O)(=O)Nc3nccs3)c(F)c2)n(-c2ccccc2)n1` [Compound 216, N,N-diethyl-2-(5-(3-fluoro-4-(N-thiazol-2-ylsulfamoyl)phenylamino)-1-phenyl-1H-pyrazol-3-yl)ethanamide], the figures for the IC50 in experiment [1] and in [2] were greater than 1000 nM and less than 2000 nM, respectively.

For the compound `COc1cc(Cl)ccc1-c1cc(Nc2ccc(S(=O)(=O)Nc3nccs3)c(F)c2)n(C)n1` [Compound 222, 4-(3-(4-chloro-2-methoxyphenyl)-1-methyl-1H-pyrazol-5-ylamino)-2-fluoro-N-(thiazol-2-yl)benzenesulfonamide], the IC50 in [1] and in experiment [2] was less than 2000 nM in each case.

For `O=S(=O)(Nc1nccs1)c1ccc(Nc2ccn(Cc3ccc(Cl)cc3)n2)nc1` [Compound 227, 6-(1-(4-chlorobenzyl)-1H-pyrazol-3-ylamino)-N-(thiazol-2-yl)pyridine-3-sulfonamide], the IC50 was less than 2000 nM in [1] and 2000 to 10000 nM in [2].

Consider `O=S(=O)(Nc1nccs1)c1ccc(Nc2cnn(Cc3ccc(Cl)cc3)c2)nc1` [Compound 228, 6-(1-(4-chlorobenzyl)-1H-pyrazol-4-ylamino)-N-(thiazol-2-yl)pyridine-3-sulfonamide], for which the IC50 in experiment [1] was less than 2000 nM; in experiment [2], 2000 to 10000 nM.

For `O=S(=O)(Nc1nccs1)c1ccc(Nc2ccn(Cc3ccc(Cl)cc3)n2)cn1` [Compound 235, 5-(1-(4-chlorobenzyl)-1H-pyrazol-3-ylamino)-N-(thiazol-2-yl)pyridine-2-sulfonamide], the IC50 is less than 2000 nM in experiment [1] and 2000 to 10000 nM in experiment [2].

Regarding `O=S(=O)(Nc1ncns1)c1ccc(Nc2ccn(Cc3ccc(Cl)cc3)n2)cc1F` [Compound 244, 4-(1-(4-chlorobenzyl)-1H-pyrazol-3-ylamino)-2-fluoro-N-(1,2,4-thiadiazol-5-yl)benzenesulfonamide], the IC50 in [1] and in experiment [2] was less than 2000 nM each time.

Take `Cc1cc(Nc2ccc(S(=O)(=O)Nc3ncc(C#N)s3)c(F)c2)n(-c2ccccc2)n1` [Compound 245, N-(5-cyanothiazol-2-yl)-2-fluoro-4-(3-methyl-1-phenyl-1H-pyrazol-5-ylamino)benzenesulfonamide]: the IC50 in experiment [1] was 2000 to 10000 nM; in experiment [2], greater than 1000 nM.

For the compound `O=S(=O)(Nc1nccs1)c1ccc(Nc2ccn(Cc3ccc(Cl)cc3)n2)cc1Cl` [Compound 263, 2-chloro-4-(1-(4-chlorobenzyl)-1H-pyrazol-3-ylamino)-N-(thiazol-2-yl)benzenesulfonamide], the IC50 in [1] and in experiment [2] was less than 2000 nM in each case.

With `N#Cc1cc(Nc2ccn(Cc3ccc(Cl)cc3)n2)ccc1S(=O)(=O)Nc1nccs1` [Compound 264, 4-(1-(4-chlorobenzyl)-1H-pyrazol-3-ylamino)-2-cyano-N-(thiazol-2-yl)benzenesulfonamide], the IC50 in experiment [1] and in experiment [2] was less than 2000 nM in each case.

Turning to `O=S(=O)(Nc1nccs1)c1ccc(Nc2ccn(Cc3ccc(Cl)cc3)n2)cc1OC(F)(F)F` [Compound 266, 4-(1-(4-chlorobenzyl)-1H-pyrazol-3-ylamino)-N-(thiazol-2-yl)-2-(trifluoromethoxy)benzenesulfonamide], the values for the IC50 in [1] and in experiment [2] were 2000 to 10000 nM and greater than 1000 nM, respectively.

For the compound `Cc1cc(S(=O)(=O)Nc2nccs2)c(F)cc1Nc1ccn(Cc2ccc(Cl)cc2)n1` [Compound 269, 4-(1-(4-chlorobenzyl)-1H-pyrazol-3-ylamino)-2-fluoro-5-methyl-N-(thiazol-2-yl)benzenesulfonamide], the IC50 in [1] and in [2] was less than 2000 nM each time.

As for `COc1ccc(C(=O)Cn2ncc3cc(S(=O)(=O)Nc4nccs4)ccc32)c(OC)c1` [Compound 276, 1-(2-(2,4-dimethoxyphenyl)-2-oxoethyl)-N-(thiazol-2-yl)-1H-indazole-5-sulfonamide], the IC50 in experiment [1] was less than 2000 nM; in experiment [2], greater than 1000 nM.

Turning to `COc1ccc(C(=O)Cn2cc3cc(S(=O)(=O)Nc4nccs4)ccc3n2)c(OC)c1` [Compound 277, 2-(2-(2,4-dimethoxyphenyl)-2-oxoethyl)-N-(thiazol-2-yl)-2H-indazole-5-sulfonamide], the IC50 in experiment [1] was greater than 1000 nM; in [2], less than 2000 nM.

On to `O=C(Cn1ncc2cc(S(=O)(=O)Nc3nccs3)ccc21)c1ccc(F)cc1` [Compound 280, 1-(2-(4-fluorophenyl)-2-oxoethyl)-N-(thiazol-2-yl)-1H-indazole-5-sulfonamide], for which the IC50 in [1] and in experiment [2] was 2000 to 10000 nM throughout.

For the compound `NC1=N[C@H](O)[C@H]2[C@H]3O[C@]4(O)O[C@@H]([C@@H](O)[C@@]2(N1)[C@@H]4O)[C@]3(O)CO` [TTX, tetrodotoxin], the IC50 in experiment [3] was 15 nM; in [4], 6 nM; in [5] it was 50 µM; in experiment [6], 1000 nM; in [7], 10 nM; in experiment [8], 10 nM.

As for `NCC1(CC(=O)O)CCCCC1` [gabapentin], in [9], the “patients that respond to gabapentin treatment for neuropathic pain” value is on record as 30%.
